{"source": "patent USRE32868E", "about": "“Antihyperlipidemic compositions” (Research Corporation, priority 1985, dated 1989)", "system": "mice", "assay": "Acute toxicity (LD50) in mice", "type": "in vivo", "conditions": "2 g/kg", "from_the_text": "They also are non-toxic. […] Moreover, there is no evidence that the weight of any of the major organs is altered as a result of treatment with compounds used in the invention.", "data": [{"smiles": "CC(=O)CN1C(=O)c2ccccc2C1=O", "note": "[1-N--Phthalimidopropan-2-one]", "values": [{"measurement": "deaths", "value": "no deaths were observed"}]}]}
